These results are taken from patent US20080261994A1, “CYCLOPROPANE COMPOUNDS AND PHARMACEUTICAL USE THEREOF” (Japan Tobacco Inc., priority 2003, published 2008).

SMILES strings stand for the structures.

What all share (assay type): biochemical
For one test, the target named is T1, MMP-1 (Homo sapiens, UniProt P03956).
T1 sequence (P03956 100-469): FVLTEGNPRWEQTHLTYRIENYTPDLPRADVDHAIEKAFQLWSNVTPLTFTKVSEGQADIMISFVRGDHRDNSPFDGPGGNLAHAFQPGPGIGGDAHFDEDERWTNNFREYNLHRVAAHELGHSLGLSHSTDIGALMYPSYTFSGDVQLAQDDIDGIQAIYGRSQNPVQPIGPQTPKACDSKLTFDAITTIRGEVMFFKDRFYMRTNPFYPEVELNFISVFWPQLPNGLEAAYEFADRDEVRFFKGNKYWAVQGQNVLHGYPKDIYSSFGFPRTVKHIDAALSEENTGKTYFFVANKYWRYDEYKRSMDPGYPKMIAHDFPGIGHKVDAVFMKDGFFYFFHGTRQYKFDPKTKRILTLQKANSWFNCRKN
Briefly: MMP-1 inhibitory action (Type I collagen Activity Measurement kit, FITC-labeled collagen type I). Particulars: Experimental Example 2; read-out: IC50 MMP1.

For a further test, the target named is T2, aggrecanase-1 (Homo sapiens, UniProt O75173).
T2 sequence (O75173 213-837): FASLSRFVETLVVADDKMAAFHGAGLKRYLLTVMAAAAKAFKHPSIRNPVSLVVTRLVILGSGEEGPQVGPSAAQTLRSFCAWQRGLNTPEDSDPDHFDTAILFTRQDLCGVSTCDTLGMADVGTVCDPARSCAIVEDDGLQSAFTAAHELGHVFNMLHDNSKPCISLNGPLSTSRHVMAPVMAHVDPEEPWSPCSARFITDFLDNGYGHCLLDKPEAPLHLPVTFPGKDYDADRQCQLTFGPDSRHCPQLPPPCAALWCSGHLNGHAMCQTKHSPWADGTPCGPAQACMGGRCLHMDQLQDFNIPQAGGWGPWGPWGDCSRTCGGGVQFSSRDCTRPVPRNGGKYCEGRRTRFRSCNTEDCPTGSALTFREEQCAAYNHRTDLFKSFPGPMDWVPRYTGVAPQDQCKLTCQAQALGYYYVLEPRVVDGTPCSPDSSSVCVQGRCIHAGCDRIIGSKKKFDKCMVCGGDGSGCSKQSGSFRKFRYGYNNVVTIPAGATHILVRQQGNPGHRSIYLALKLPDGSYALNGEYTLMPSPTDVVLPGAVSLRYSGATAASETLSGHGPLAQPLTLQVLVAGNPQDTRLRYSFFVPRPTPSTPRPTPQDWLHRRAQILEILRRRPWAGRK
Briefly: Aggrecanase-1 inhibitory action (Particle Assay, GAG release from aggrecan-containing polyacrylamide particles). Particulars: Experimental Example 1; read-out: IC50 AG1. In a few lines: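 Enzyme and compound incubated with aggrecan-containing polyacrylamide particles in Tris-HCl buffer at 37° C for 15 h. Released GAG in supernatant measured with 1,9-dimethylmethylene blue at 595 nm against chondroitin sulfate standard; % inhibition from enzyme-free and inhibitor-free wells, reported as TC50 (μM).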

The next test concerns the target T3, Recombinant Human MMP-13 (Homo sapiens, UniProt P45452).
T3 construct: purchased R&D systems 511-MM
Put plainly: MMP-13 inhibitory activity (MMP-13 specific fluorescent substrate with quencher). Particulars: Experimental Example 3; read-out: IC50 MMP13. In a few lines: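 Recombinant human MMP-13 with test compound, reaction started with quenched fluorogenic peptide 7-MCA-Pro-CHA-Gly-NVal-His-Ala-DPA in Tris-HCl buffer, 1 h at 25 °C, stopped with acetic acid. Fluorescence at Ex 325/Em 405 nm; % inhibition versus enzyme-free and inhibitor-free wells, reported as IC50 (μM).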

For the compound `CC1[C@H](c2ccccc2)[C@]1(NS(=O)(=O)c1ccc(-c2nc3ccccc3s2)s1)C(=O)O` (stereo partly drawn) [Example 2-591], the IC50 (commonly the point on the concentration scale where inhibition reaches its midpoint) at MMP-1 is not below 1 µM; at aggrecanase-1 it was not below 1 µM; at Recombinant Human MMP-13, less than 0.1 µM.
On to `C[C@]1(c2ccccc2)C[C@@]1(NS(=O)(=O)c1ccc(-c2ccc(C#N)c(F)c2)s1)C(=O)O` [Example 2-593], for which the IC50 is not below 1 µM at MMP-1, less than 1 µM on aggrecanase-1 and less than 1 µM on Recombinant Human MMP-13.
In the case of `C[C@]1(c2ccccc2)C[C@@]1(NS(=O)(=O)c1ccc(-c2ccc(CO)c(F)c2)s1)C(=O)O` [Example 2-594], the IC50 at MMP-1 was not below 1 µM; at aggrecanase-1, less than 1 µM; on Recombinant Human MMP-13 it was less than 1 µM.
Consider `COc1ccc(-c2ccc(S(=O)(=O)N[C@@]3(C(=O)O)C[C@]3(C)c3ccccc3)s2)cc1Cl` [Example 2-595], for which the IC50 at MMP-1 was not below 1 µM; on aggrecanase-1, not below 1 µM; at Recombinant Human MMP-13, less than 0.1 µM.
Take `CC1[C@H](c2ccccc2)[C@]1(NS(=O)(=O)c1ccc2nc(-c3ccccc3)[nH]c2c1)C(=O)O` (stereo partly drawn) [Example 2-596]: the IC50 is not below 1 µM at MMP-1, less than 1 µM at aggrecanase-1 and less than 1 µM at Recombinant Human MMP-13.
Turning to `CC1C(NS(=O)(=O)c2ccc(-c3cc(C(F)(F)F)on3)s2)(C(=O)O)C1(C)c1ccccc1` (stereo not drawn) [Example 2-597], the half-inhibitory concentration (IC50) on MMP-1 is not below 1 µM; at aggrecanase-1, not below 1 µM; on Recombinant Human MMP-13, not below 10 µM.
Turning to `CC1C(NS(=O)(=O)c2ccc(-c3cc(C(F)(F)F)on3)s2)(C(=O)O)C1(C)c1ccccc1` (stereo not drawn) [Example 2-598], the half-maximal inhibitory concentration (IC50) is not below 1 µM on MMP-1, less than 0.1 µM at aggrecanase-1 and less than 1 µM on Recombinant Human MMP-13.
Consider `C[C@]1(c2ccccc2)C[C@@]1(NS(=O)(=O)c1ccc(-n2cc(C(F)(F)F)cn2)s1)C(=O)O` [Example 2-599], for which the 50% inhibitory concentration (IC50) on MMP-1 is not below 1 µM; on aggrecanase-1, less than 0.1 µM; at Recombinant Human MMP-13, less than 1 µM.
In the same order, the values of `C[C@]1(c2ccccc2)C[C@@]1(NS(=O)(=O)c1ccc(-c2ccc(F)c(O)c2)s1)C(=O)O` [Example 2-600] are not below 1 µM, less than 1 µM and less than 1 µM.
In the same order, the values of `C[C@]1(c2ccccc2)C[C@@]1(NS(=O)(=O)c1ccc(-c2cc(O)c(F)c(F)c2)s1)C(=O)O` [Example 2-601] are not below 1 µM, less than 1 µM and not below 1 µM.
The like results for `C[C@]1(c2ccccc2)C[C@@]1(NS(=O)(=O)c1ccc(-n2cc(S(C)(=O)=O)cn2)s1)C(=O)O` [Example 2-602] were, in that order, less than 1 µM, less than 0.1 µM and less than 1 µM.
Take `C[C@]1(c2ccccc2)C[C@@]1(NS(=O)(=O)c1ccc(-n2cc(CO)cn2)s1)C(=O)O` [Example 2-603]: the half-maximal inhibitory concentration (IC50) at MMP-1, at aggrecanase-1 and on Recombinant Human MMP-13 was less than 1 µM throughout.
In the case of `O=C(O)[C@]1(NS(=O)(=O)c2ccc(-n3cc(Br)cn3)s2)C[C@@H]1c1ccccc1` [Example 2-605], the concentration for half-maximal inhibition (IC50) was not below 10 µM on MMP-1, not below 1 µM on aggrecanase-1 and not below 1 µM on Recombinant Human MMP-13.
`C[C@]1(c2ccccc2)C[C@@]1(NS(=O)(=O)c1ccc(-c2cccc(C(F)(F)CO)c2)s1)C(=O)O` [Example 2-606]: the values for the IC50 at MMP-1, on aggrecanase-1 and at Recombinant Human MMP-13 were not below 10 µM, not below 1 µM and not below 1 µM, respectively.
With `COc1ccc2[nH]c(-c3ccc(S(=O)(=O)N[C@@]4(C(=O)O)C(C)[C@@H]4c4ccccc4)s3)nc2c1` (stereo partly drawn) [Example 2-607], the results for the concentration for half-maximal inhibition (IC50) on MMP-1, at aggrecanase-1 and on Recombinant Human MMP-13 were not below 1 µM, not below 1 µM and less than 0.1 µM, respectively.
For the compound `CC1(c2ccc(Cl)cc2)CC1(NS(=O)(=O)c1ccc(-c2cc(C(F)(F)F)on2)s1)C(=O)O` (stereo not drawn) [Example 2-608], the IC50 on MMP-1 is less than 1 µM; at aggrecanase-1, less than 0.1 µM; on Recombinant Human MMP-13, less than 1 µM.
For `CC1[C@H](c2ccccc2)[C@]1(NS(=O)(=O)c1ccc(-c2cc(C(C)(F)F)on2)s1)C(=O)O` (stereo partly drawn) [Example 2-609], the IC50 on MMP-1, on aggrecanase-1 and on Recombinant Human MMP-13 was less than 0.1 µM throughout.
Turning to `COc1cccc(C2(C)CC2(NS(=O)(=O)c2ccc(-c3cc(C(F)(F)F)on3)s2)C(=O)O)c1` (stereo not drawn) [Example 2-610], the IC50 is less than 1 µM at MMP-1, less than 0.1 µM at aggrecanase-1 and not below 1 µM on Recombinant Human MMP-13.
In the same order, the values of `CC1(c2cccc(F)c2)CC1(NS(=O)(=O)c1ccc(-c2cc(C(F)(F)F)on2)s1)C(=O)O` (stereo not drawn) [Example 2-611] are less than 1 µM, less than 0.1 µM and not below 1 µM.
In the case of `CC1(c2cccc(Cl)c2)CC1(NS(=O)(=O)c1ccc(-c2cc(C(F)(F)F)on2)s1)C(=O)O` (stereo not drawn) [Example 2-612], the results for the IC50 at MMP-1, at aggrecanase-1 and on Recombinant Human MMP-13 were less than 1 µM, less than 0.1 µM and not below 1 µM, respectively.
In the same order, the values of `COc1ccccc1C1(C)CC1(NS(=O)(=O)c1ccc(-c2cc(C(F)(F)F)on2)s1)C(=O)O` (stereo not drawn) [Example 2-613] are less than 1 µM, less than 0.1 µM and not below 1 µM.
The like results for `CC1(c2cccc(S(C)(=O)=O)c2)CC1(NS(=O)(=O)c1ccc(-c2cc(C(F)(F)F)on2)s1)C(=O)O` (stereo not drawn) [Example 2-614] were, in that order, less than 1 µM, less than 0.1 µM and not below 1 µM.
The like results for `CC1(c2ccccc2F)CC1(NS(=O)(=O)c1ccc(-c2cc(C(F)(F)F)on2)s1)C(=O)O` (stereo not drawn) [Example 2-615] were, in that order, less than 0.1 µM, less than 0.1 µM and less than 0.1 µM.
Take `CC1(c2ccccc2Cl)CC1(NS(=O)(=O)c1ccc(-c2cc(C(F)(F)F)on2)s1)C(=O)O` (stereo not drawn) [Example 2-616]: the IC50 is less than 1 µM at MMP-1, less than 0.1 µM on aggrecanase-1 and less than 1 µM at Recombinant Human MMP-13.
Take `CC1(c2cccnc2)CC1(NS(=O)(=O)c1ccc(-c2cc(C(F)(F)F)on2)s1)C(=O)O` (stereo not drawn) [Example 2-617]: the values for the IC50 on MMP-1, on aggrecanase-1 and on Recombinant Human MMP-13 were not below 1 µM, less than 1 µM and not below 1 µM, respectively.
Turning to `C[C@]1(c2cccc(F)c2)C[C@@]1(NS(=O)(=O)c1ccc(-c2cc(C(F)(F)F)on2)s1)C(=O)O` [Example 2-618], the figures for the IC50 at MMP-1, on aggrecanase-1 and on Recombinant Human MMP-13 were less than 1 µM, less than 0.1 µM and less than 1 µM, respectively.
Regarding `C[C@]1(c2cccc(Cl)c2)C[C@@]1(NS(=O)(=O)c1ccc(-c2cc(C(F)(F)F)on2)s1)C(=O)O` [Example 2-619], the IC50 on MMP-1 was less than 1 µM; on aggrecanase-1, less than 0.1 µM; at Recombinant Human MMP-13, less than 1 µM.
Consider `C[C@]1(c2ccc(Cl)cc2)C[C@@]1(NS(=O)(=O)c1ccc(-c2cc(C(F)(F)F)on2)s1)C(=O)O` [Example 2-620], for which the results for the IC50 on MMP-1, on aggrecanase-1 and at Recombinant Human MMP-13 were less than 1 µM, less than 0.1 µM and less than 0.1 µM, respectively.
Regarding `C[C@]1(c2ccc(F)cc2)C[C@@]1(NS(=O)(=O)c1ccc(-c2cc(C(F)(F)F)on2)s1)C(=O)O` [Example 2-621], the half-inhibitory concentration (IC50) at MMP-1 is less than 1 µM; at aggrecanase-1, less than 0.1 µM; at Recombinant Human MMP-13, less than 0.1 µM.
Consider `CC1[C@H](c2ccccc2)[C@]1(NS(=O)(=O)c1ccc2nc(-c3ccccc3)cn2c1)C(=O)O` (stereo partly drawn) [Example 2-622], for which the IC50 on MMP-1 was not below 1 µM; at aggrecanase-1 it was not below 1 µM; at Recombinant Human MMP-13, less than 1 µM.
On to `CC1[C@](C)(c2ccccc2)[C@]1(NS(=O)(=O)c1ccc(-c2cc(C(F)(F)F)on2)s1)C(=O)O` (stereo partly drawn) [Example 2-623], for which the IC50 at MMP-1 was less than 1 µM; on aggrecanase-1, less than 0.1 µM; on Recombinant Human MMP-13, less than 0.1 µM.
